In patent US9668479B2, “Modulating germination of Paenibacillus larvae” (THE BOARD OF REGENTS OF THE NEVADA SYSTEM OF HIGHER …, priority 2013, dated 2017):
Read-outs that look alike come from different tables or passages of the source.

What was measured:
P. larvae spores [1] = assay: Inhibition of P. larvae spore germination by indole and phenol, IC50 titration (Example 1); type: cell-based, Paenibacillus larvae subsp. pulvifaciens strain ATCC 49843; conditions: for IC50: Paenibacillus larvae
Procedure: The decrease in optical density is proportional to spore germination (Powell, J. Gen. Microbiol., 4:330-338, 1950). Changes in light diffraction during spore germination were monitored at 580 nm (OD580) on a Biomate 5 (ThermoElectron Corporation, Waltham, Mass.) or a Tecan Infinite m200 (Tecan group, Männedorf, Switzerland) spectrophotometer. Experiments were carried out in 96-well plates (200 μL/well). In preparation for germination assays, P. larvae spore suspensions were washed three times with water. Spores were then heat activated at 70° C. for 30 minutes. The heat-activated spores were allowed to reach room temperature and transferred to 0.1 M sodium phosphate buffer (pH 7.0) to an approximate OD580 of 0.70. Spores were monitored for auto-germination for 30 minutes. […] Putative germinants were added individually or in combinations to a final concentration of 3 mM. Experiments were performed in triplicate with at least two different spore preparations. After germinant addition, OD580 of the spore suspension was measured every minute for an hour. Relative OD values were derived by dividing each OD580 reading by the initial OD580. Spore germination rates (v) were calculated from the initial linear decrease in relative OD (Akoachere et al., supra). Germination rates were set to 100% for P. larvae spores that had the fastest germination rate in an assay. Germination rates for other conditions were divided by the maximum germination rate for that assay and are reported as percent germination. […] Spore germination was confirmed in selected samples by microscope observation of Schaeffer-Fulton stained aliquots (Schaeffer and Fulton, supra).
After 15 minutes of incubation, spores were treated with 3 mM L-tyrosine/3 mM uric acid. The germination rate was set to 100% for P. larvae spores germinated in the absence of inhibitor. Germination rates for other conditions were divided by the uninhibited maximum germination rate obtained with 3 mM L-tyrosine/3 mM uric acid, and are reported as percent germination. Percent germination was plotted against inhibitor concentrations. The resulting sigmoidal curves were fitted using the four parameter logistic function in SigmaPlot v.9 to calculate IC50 values.

P. larvae spores [2] = assay: Inhibition of P. larvae spore germination, IC50 titration of indole analogs (Example 2); type: cell-based, Paenibacillus larvae subsp. pulvifaciens strain ATCC 49843
Procedure: After a 15 minute incubation, the spores were treated with 3 mM L-tyrosine-3 mM uric acid. The germination rate was set to 100% for P. larvae spores germinated in the absence of inhibitor. Germination rates for other conditions were divided by the uninhibited maximum germination rate obtained with 3 mM L-tyrosine-3 mM uric acid, and are reported as percent germination. Percent germination was plotted against the inhibitor concentrations.

[3] = system: honey bee larvae contacted with P. larvae spores; assay: Survival of honey bee larvae fed diet with indole analogs and P. larvae spores; type: in vivo; conditions: 0.5 mM in larval diet (wj) plus P. larvae spores; for survival of honey bee larvae vs P. larvae spores alone: 7-day development, p<0.002
Procedure: First instar honey bee larvae were obtained from two colonies headed by naturally mated queens (Honey Bee Genetics, Vacaville Calif.). Queens were trapped on empty frames within a cage constructed with queen excluder. Worker bees can fit through the excluder but the queen cannot exit the cage. The frame was placed within the brood chamber to stimulate egg laying by the queen overnight. Eggs were incubated in the hive for 4 days to allow newly hatched larvae to be fed by nurse bees. First instar honey bee larvae were brought into the laboratory and stored in a 35° C. 85% relative humidity chamber before grafting.
Sterile six well plates with a well volume of 17.0 ml were filled with 2.5 ml of pre-warmed artificial worker jelly. Honey bee larvae were transferred into each well using the thin tongue made of flexible plastic from a Chinese grafting tool. The plastic grafting tool was decontaminated with 70% ethanol throughout usage. Grafting was performed in the sterile environment of a honey bee laboratory, and honey bee larvae were then transferred to a bacterial spore laboratory for control and spore exposure treatments.
Artificial worker jelly was prepared using a lyophilized royal jelly, D-glucose, D-fructose, yeast extract, and autoclaved double distilled water. Ingredients minus lyophilized royal jelly were dissolved in autoclaved double distilled water. Lyophilized royal jelly was added to this sugar-yeast extract solution and mixed thoroughly with a vortex mixer. Artificial diet was prepared an hour prior to use for larval rearing. To reduce the development of worker-queen hybrids because of nutrition, the composition and amounts of artificial worker jelly were controlled in every larval stage.
Honey bee larvae were incubated in an air tight plastic container placed inside an incubator. The desired relative humidity (95%) and temperature (35° C.) was verified with an iButton data logger (Maxim Integrated; San Jose, Calif.). The appropriate relative humidity was obtained by placing a solution of 20% glycerol by weight. The plastic containers were was decontaminated throughout usage with detergent, 70% ethanol, and treated with an ultraviolet lamp overnight.
Feeding of diets was performed daily in different amounts according to Table 2. The amount of diet consumed by larvae was assumed based on published literature. A micropipette was used to place a food drop next to the mouth of the larvae. Drowning was avoided by maintaining the appropriate humidity and water content of diet. Forty first and second instar larvae were placed into one well of a six well plate. Third instar larvae were transferred individually to 48 well plates filled with fresh food.
Larval survival was determined daily by observing signs of respiration, disease symptoms, and other abnormalities with a stereo microscope. The number of dead larvae was recorded, and surviving larvae were fed fresh food. The start of pupation was indicated by the appearance of uric acid crystals and light yellow excretions in the remaining food.
The larval survival data was analyzed using the LogRank test in SigmaPlot.

P. larvae spores [4] = assay: Antagonists of P. larvae spore germination, 3 mM (Example 1); type: cell-based, Paenibacillus larvae subsp. pulvifaciens strain ATCC 49843; conditions: 3 mM analog, 15 minutes, then 3 mM L-tyrosine/3 mM uric acid
Procedure: (§1) The decrease in optical density is proportional to spore germination (Powell, J. Gen. Microbiol., 4:330-338, 1950). Changes in light diffraction during spore germination were monitored at 580 nm (OD580) on a Biomate 5 (ThermoElectron Corporation, Waltham, Mass.) or a Tecan Infinite m200 (Tecan group, Männedorf, Switzerland) spectrophotometer. Experiments were carried out in 96-well plates (200 μL/well). In preparation for germination assays, P. larvae spore suspensions were washed three times with water. Spores were then heat activated at 70° C. for 30 minutes. The heat-activated spores were allowed to reach room temperature and transferred to 0.1 M sodium phosphate buffer (pH 7.0) to an approximate OD580 of 0.70. Spores were monitored for auto-germination for 30 minutes. […] Putative germinants were added individually or in combinations to a final concentration of 3 mM. Experiments were performed in triplicate with at least two different spore preparations. After germinant addition, OD580 of the spore suspension was measured every minute for an hour. Relative OD values were derived by dividing each OD580 reading by the initial OD580. Spore germination rates (v) were calculated from the initial linear decrease in relative OD (Akoachere et al., supra). Germination rates were set to 100% for P. larvae spores that had the fastest germination rate in an assay. Germination rates for other conditions were divided by the maximum germination rate for that assay and are reported as percent germination. Standard deviations were calculated from at least six independent measurements and are typically below 10%. Spore germination was confirmed in selected samples by microscope observation of Schaeffer-Fulton stained aliquots (Schaeffer and Fulton, supra).
To test for possible antagonists of P. larvae spore germination, spores were individually supplemented with 3 mM of a purine analog or 3 mM of an amino acid analog. […] If no germination was detected, L-tyrosine and uric acid were added to 3 mM final concentrations, and germination was monitored as described above. […]

P. larvae spores [5] = assay: Determination of germinants / agonists of P. larvae spore germination (OD580 decrease); type: cell-based, Paenibacillus larvae subsp. pulvifaciens strain ATCC 49843; conditions: 3 mM amino acid or analog plus 3 mM uric acid
Procedure: as §1
To test for possible agonists of P. larvae spore germination, spores were individually supplemented with 3 mM of a purine analog and 3 mM L-tyrosine. Separately, P. larvae spores were incubated with 3 mM of an amino acid analog and 3 mM uric acid. Spore germination was monitored as described above. […]

[6] = system: P. larvae subsp. larvae spores; type: cell-based, Paenibacillus larvae subsp. larvae
Text: Chemicals were purchased from Sigma Aldrich Corporation (St. Louis, Mo.). Dehydrated culture media was purchased from BD Difco (Franklin Lakes, N.J.). Paenibacillus larvae subsp. pulvifaciens strain ATCC 49843 was purchased from the […] (ATCC). Environmental American Foulbrood scales (the remains of infected larvae collected from infected hives) were kindly donated by Dr. Jay D. Evans at the USDA Bee Research Facility in Beltsville, Md.
To test the generality of P. larvae spore response, spores were prepared from P. larvae subsp. pulvifaciens strain ATCC 49843, and also from an environmental AFB sample.

P. larvae spores [7] = assay: Activation of P. larvae spore germination by L-tyrosine and uric acid (titration); type: cell-based, Paenibacillus larvae subsp. pulvifaciens strain ATCC 49843; conditions: Paenibacillus larvae
Procedure: The decrease in optical density is proportional to spore germination (Powell, J. Gen. Microbiol., 4:330-338, 1950). Changes in light diffraction during spore germination were monitored at 580 nm (OD580) on a Biomate 5 (ThermoElectron Corporation, Waltham, Mass.) or a Tecan Infinite m200 (Tecan group, Männedorf, Switzerland) spectrophotometer. Experiments were carried out in 96-well plates (200 μL/well). In preparation for germination assays, P. larvae spore suspensions were washed three times with water. Spores were then heat activated at 70° C. for 30 minutes. The heat-activated spores were allowed to reach room temperature and transferred to 0.1 M sodium phosphate buffer (pH 7.0) to an approximate OD580 of 0.70. Spores were monitored for auto-germination for 30 minutes. […] After germinant addition, OD580 of the spore suspension was measured every minute for an hour. Relative OD values were derived by dividing each OD580 reading by the initial OD580. Spore germination rates (v) were calculated from the initial linear decrease in relative OD (Akoachere et al., supra). […] Standard deviations were calculated from at least six independent measurements and are typically below 10%. […]
P. larvae spore germination was tested with different combinations of L-tyrosine and uric acid. […] Germination rates were determined as above. […]

[8] = 15 minutes incubation, then 3 mM L-tyrosine/3 mM uric acid, read-out: IC50 inhibition of P. larvae spore germination
[9] = Table 1, 15 minutes prior to addition of 3 mM uric acid and 3 mM L-tyrosine, standard deviations in parentheses, N/A = no activity under the conditions tested, read-out: IC50
[10] = Paenibacillus larvae, Table 2, saturating uric acid/L-tyrosine concentrations, read-out: IC50
[11] = environmental P. larvae subsp. larvae compared with strain ATCC 49843

## Cn1ccc2ccccc21 [1-N-methylindole]
P. larvae spores [1]; 15 minutes incubation, then 3 mM L-tyrosine/3 mM uric acid
  IC50 inhibition of P. larvae spore germination: neither activated nor inhibited

## Cc1c[nH]c2ccccc12 [3-methylindole]
P. larvae spores [1]; [8]
  IC50: 380 µM
P. larvae spores [1]; [9]
  IC50: 380 µM

## N#Cc1cccc2[nH]ccc12 [4-cyanoindole]
P. larvae spores [2]; [10]
  IC50: 200 ± 20 µM

## Brc1ccc2[nH]ccc2c1 [5-bromindole]
P. larvae spores [2]; Table 2, saturating uric acid/L-tyrosine concentrations, read-out: IC50
  IC50: 60 ± 70 µM
[3]
  ranking of effect on larval survival among analogs: greatest effect
  survival of honey bee larvae vs P. larvae spores alone: increased survival

## Fc1ccc2[nH]ccc2c1 [5-fluoroindole]
P. larvae spores [2]; [10]
  IC50: 120 ± 20 µM

## Oc1ccc2[nH]ccc2c1 [5-hydroxyindole]
P. larvae spores [2]; [10]
  IC50: 550 ± 170 µM

## Cc1ccc2[nH]ccc2c1 [5-methylindole]
P. larvae spores [1]; [8]
  IC50: 370 µM
P. larvae spores [1]; [9]
  IC50: 370 µM

## O=[N+]([O-])c1ccc2[nH]ccc2c1 [5-nitroindole]
P. larvae spores [2]; [10]
  IC50: 70 ± 10 µM
[3]
  survival of honey bee larvae vs P. larvae spores alone: increased survival

## Brc1ccc2cc[nH]c2c1 [6-bromoindole]
P. larvae spores [2]; [10]
  IC50: 60 ± 60 µM
[3]
  survival of honey bee larvae vs P. larvae spores alone: increased survival

## Clc1ccc2cc[nH]c2c1 [6-chloroindole]
P. larvae spores [2]; [10]
  IC50: 20 µM
[3]
  survival of honey bee larvae vs P. larvae spores alone: increased survival

## N#Cc1ccc2cc[nH]c2c1 [6-cyanoindole]
P. larvae spores [2]; [10]
  IC50: 110 ± 10 µM

## Fc1ccc2cc[nH]c2c1 [6-fluoroindole]
P. larvae spores [2]; [10]
  IC50: 120 ± 10 µM

## Cc1cccc2cc[nH]c12 [7-methylindole]
P. larvae spores [1]; [8]
  IC50: 280 µM
P. larvae spores [1]; [9]
  IC50: 280 µM

## N[C@H](Cc1ccc(O)cc1)C(=O)O [D-tyrosine, reference compound]
P. larvae spores [4]
  inhibition of uric acid/L-tyrosine-induced germination: did not inhibit
P. larvae spores [5]
  germination response as co-germinant with uric acid: none of the compounds tested was able to activate

## c1ccc2[nH]ccc2c1 [Indole]
P. larvae spores [4]
  inhibition of uric acid/L-tyrosine-induced germination: able to inhibit
P. larvae spores [2]; Paenibacillus larvae
  IC50: 370 ± 20 µM
P. larvae spores [2]; Paenibacillus larvae, read-out: IC50 inhibition of P. larvae spore germination (previously shown)
  IC50: 400 µM
[6]; [11]
  inhibition of germination, both P. larvae sub-species: similarly inhibited
P. larvae spores [1]
  IC50: 330 µM
P. larvae spores [1]; read-out: IC50 inhibition of P. larvae spore germination
  IC50: 370 µM

## N[C@@H](Cc1ccc(O)cc1)C(=O)O [L-tyrosine]
P. larvae spores [7]; read-out: EC50 for L-tyrosine activation of P. larvae spore germination
  EC50: 1200 µM
P. larvae spores [5]
  germination response as co-germinant with uric acid: strong germination response
[6]; [11]
  germination response to L-tyrosine and uric acid, both P. larvae sub-species: responded identically

## Oc1ccccc1 [Phenol]
P. larvae spores [4]
  inhibition of uric acid/L-tyrosine-induced germination: able to inhibit
P. larvae spores [5]
  germination response as co-germinant with uric acid: none of the compounds tested was able to activate
[6]
  inhibition of germination, both P. larvae sub-species: similarly inhibited

## O=c1[nH]c(=O)c2[nH]c(=O)[nH]c2[nH]1 [uric acid, reference compound]
P. larvae spores [7]; titration of uric acid at saturating L-tyrosine concentration (3 mM), read-out: EC50 for uric acid activation of P. larvae spore germination
  EC50: 200 µM
[6]; [11]
  germination response to L-tyrosine and uric acid, both P. larvae sub-species: responded identically
